Series [1] concerns the target T1, human muscarinic receptor M5 (Homo sapiens, UniProt P08912).
T1 construct: expressed in transfected cells; host or cells: CHO cells (membranes)
T1 sequence (P08912 1-532): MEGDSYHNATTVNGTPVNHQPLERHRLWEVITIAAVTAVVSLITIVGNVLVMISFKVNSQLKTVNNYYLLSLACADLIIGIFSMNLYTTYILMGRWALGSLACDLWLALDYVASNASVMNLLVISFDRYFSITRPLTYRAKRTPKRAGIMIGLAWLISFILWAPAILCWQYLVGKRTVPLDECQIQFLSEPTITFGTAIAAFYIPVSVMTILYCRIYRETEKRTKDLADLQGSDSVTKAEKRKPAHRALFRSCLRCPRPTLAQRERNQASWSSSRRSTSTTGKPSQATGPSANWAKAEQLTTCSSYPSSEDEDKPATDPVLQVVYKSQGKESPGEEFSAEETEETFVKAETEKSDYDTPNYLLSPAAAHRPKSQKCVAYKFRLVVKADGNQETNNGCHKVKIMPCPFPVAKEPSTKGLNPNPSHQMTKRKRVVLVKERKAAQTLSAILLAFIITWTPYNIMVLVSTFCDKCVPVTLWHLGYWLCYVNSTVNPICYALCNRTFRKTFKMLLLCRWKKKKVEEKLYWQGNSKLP
The experiment in a line: Muscarinic M5 receptor binding, [3H]4-DAMP. The following applies: read-out: Affinity for Muscarinic Receptors, M5, Ki. On the procedure: Protocol. The affinities of AT, NT (+)-E-10-OH-NT and (−)-E-10-OH-NT for muscarinic receptors M1, M2, M3, M4 and M5 were determined with membranes prepared from CHO cells heterologously expressing the cloned human muscarinic receptors M1, M2, M3, M4 and M5. For the assays, membranes and radiolabelled ligand were incubated with various concentrations of test compounds for 1 hour at 22° C. Bound radioactivity was determined by scintillation spectroscopy. Non-specific binding was defined as the amount of bound radioligand in the presence of 1.0 μM atropine. Radioligand for the M1 receptor was [^3H]pirenzepine (2 nM). Radioligand for the M2 receptor was [^3H]AF-DX384 (2 nM). Radioligand for the M3, M4, and M5 receptors was [^3H]4-DAMP.

Series [2] deals with T2, α1a adrenergic receptor (rat salivary gland membranes) (Rattus norvegicus, UniProt P43140).
T2 construct: tested using membranes prepared from rat salivary gland; from tissue; host or cells: rat salivary gland membranes
T2 sequence (P43140 1-466): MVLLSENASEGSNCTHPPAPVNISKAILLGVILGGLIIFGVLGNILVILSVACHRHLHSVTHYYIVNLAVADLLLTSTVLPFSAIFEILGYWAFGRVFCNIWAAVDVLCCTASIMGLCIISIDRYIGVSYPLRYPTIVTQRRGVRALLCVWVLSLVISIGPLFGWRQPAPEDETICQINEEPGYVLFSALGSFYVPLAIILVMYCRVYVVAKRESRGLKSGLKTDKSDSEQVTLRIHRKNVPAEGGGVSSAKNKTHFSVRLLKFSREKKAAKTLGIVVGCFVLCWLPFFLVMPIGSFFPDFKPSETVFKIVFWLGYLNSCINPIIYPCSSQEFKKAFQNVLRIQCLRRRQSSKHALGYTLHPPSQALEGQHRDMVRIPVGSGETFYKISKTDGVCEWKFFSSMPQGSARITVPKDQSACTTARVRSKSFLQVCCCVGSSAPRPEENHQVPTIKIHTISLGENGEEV
The experiment in a line: α1a adrenergic receptor binding, [3H]prazocine. The protocol: The affinities of AT, NT, (+)-E-10-OH-NT and (−)-E-OH-NT for the α1a, α1b, α2a, α2b, and α2c adrenergic receptors was tested. Affinity for the α1a adrenergic receptor was tested using membranes prepared from rat salivary gland. [^3H]Prazocine (0.06 nM) was incubated in the presence of various concentrations of test compounds with the membranes for 1 hour at 22° C. Nonspecific binding was determined in the presence of 10 μM phentolamine. Bound radioactivity was determined by scintillation spectroscopy.

The target in another series is T3, CYP2C19 (Homo sapiens, UniProt P33261).
T3 construct: purchased BD Biosciences (San Jose, Calif.)
The experiment in a line: CYP2C19 inhibition, DBF substrate. The following applies: average of six replicate experiments; for inhibition at 10 µM: human, microsomes containing human recombinant CYP2C19, probe dibenzylfluorescein (DBF), 10 μM test compound, read-out: Inhibition of CYPD2C19, % inhib. at 10 μM; for IC50: 95% confidence limits in parentheses, read-out: Inhibition of CYPD2C19, IC50. The format is in vitro ADME. On the procedure:
CYP2C19 activity was measured using dibezylflourescein (DBF) as substrate. The source of enzyme was microsomes containing human recombinant CYP2C19 obtained from BD Biosciences (San Jose, Calif.). Conversion of DBF to fluorescein was measured using a PerkinElmer Fusion with a 485 nm excitation filter and a 535 nm emission filter.

In the next series the target is hERG (Homo sapiens, UniProt Q12809). Put plainly: hERG channel inhibition. The format is biochemical. Particulars: cloned hERG channel α subunit (expression host not stated), 10 μM test compound, read-out: percent inhibition of hERG channels. (In general: Block of hERG is tested as a sign of cardiac risk.)
Series [3] concerns the target T4, DA uptake, rat striatum synaptosomes (Rattus norvegicus, UniProt P23977).
T4 construct: into rat striatum synaptosomes; from tissue; host or cells: rat striatum synaptosomes
The experiment in a line: Inhibition of [3H]-DA uptake into synaptosomes. Particulars: for inhibition at 10 µM: read-out: Monoamine Uptake Inhibition, DA, % inhib. at 10 μM; for IC50: read-out: Monoamine Uptake Inhibition, DA, IC50. It counts as biochemical.

The test system of series [4] is FCA-induced mechanical hyperalgesia in rats. Put plainly: Rat FCA-induced mechanical hyperalgesia assay (paw pressure threshold). The format is in vivo. Particulars: for antihyperalgesia (% AH): 1 hour after treatment; for antihyperalgesia (% AH) / antihyperalgesic activity (% AH): 24 h FCA-treated rats; for antihyperalgesic activity (% AH): 60 mg/kg IP; for antihyperalgesic activity (% AH) / ED50 for reversal of mechanical hyperalgesia: 1 h posttreatment; for ED50 for reversal of mechanical hyperalgesia: response at 60 mg/kg IP taken as maximal response (100%). The protocol: Protocol. […] Dosage amounts are based on the amount of free base. For the assay, the methods of DeHaven-Hudkins et al., 1999 were used to determine mechanical hyperalgesia in rats 24 hours after intraplantar administration of 150 μL Freund's Complete Adjuvant (FCA). To determine paw pressure thresholds, the rats were lightly restrained in a gauze wrap and pressure was applied to the dorsal surface of the inflamed and uninflamed paw with a conical piston using a pressure analgesia apparatus (Stoelting Instruments, Wood Dale, Ill.). The paw pressure threshold was defined as the amount of force (in grams) required to elicit an escape response using a cutoff value of 250 grams.
Paw pressure thresholds were measured 1 h posttreatment.
Protocol. […] For comparison, sterile water vehicle was tested as a negative control. The methods of DeHaven-Hudkins et al., 1999 were used to determine mechanical hyperalgesia in rats 24 hours after intraplantar administration of 150 μL Freund's Complete Adjuvant (FCA). To determine paw pressure thresholds, the rats were lightly restrained in a gauze wrap and pressure was applied to the dorsal surface of the inflamed and uninflamed paw with a conical piston using a pressure analgesia apparatus (Stoelting Instruments, Wood Dale, Ill.). The paw pressure threshold was defined as the amount of force (in grams) required to elicit an escape response using a cutoff value of 250 grams.
Paw pressure thresholds were determined 1, 2, or 4 hours after administration using the methods disclosed in Examples 5 and 18.
Accordingly, rats were treated with sterile water vehicle, 30, or 60 mg/kg IP twenty-four hours after administration of FCA.

[5] abbreviates: read-out: Affinity at α1a adrenergic receptor, Ki.

The structures appear in SMILES notation. Read-outs that look alike come from different tables or passages of the source.

T4 sequence (P23977 whole entry): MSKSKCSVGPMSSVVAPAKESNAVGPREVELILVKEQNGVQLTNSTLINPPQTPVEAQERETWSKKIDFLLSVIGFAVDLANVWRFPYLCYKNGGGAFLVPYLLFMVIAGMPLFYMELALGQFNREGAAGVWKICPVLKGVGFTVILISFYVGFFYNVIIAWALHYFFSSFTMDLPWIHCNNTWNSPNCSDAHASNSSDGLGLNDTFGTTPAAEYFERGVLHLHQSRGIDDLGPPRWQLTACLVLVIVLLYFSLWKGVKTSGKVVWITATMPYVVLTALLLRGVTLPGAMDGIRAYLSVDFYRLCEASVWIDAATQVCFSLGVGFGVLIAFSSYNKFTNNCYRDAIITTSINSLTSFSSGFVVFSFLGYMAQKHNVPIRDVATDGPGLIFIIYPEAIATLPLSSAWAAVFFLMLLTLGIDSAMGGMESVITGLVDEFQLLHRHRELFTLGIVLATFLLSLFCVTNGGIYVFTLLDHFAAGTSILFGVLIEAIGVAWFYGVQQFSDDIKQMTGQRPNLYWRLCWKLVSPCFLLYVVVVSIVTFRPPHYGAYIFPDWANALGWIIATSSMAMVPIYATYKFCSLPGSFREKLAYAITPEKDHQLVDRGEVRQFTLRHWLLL
Sequence of hERG (Q12809 whole entry): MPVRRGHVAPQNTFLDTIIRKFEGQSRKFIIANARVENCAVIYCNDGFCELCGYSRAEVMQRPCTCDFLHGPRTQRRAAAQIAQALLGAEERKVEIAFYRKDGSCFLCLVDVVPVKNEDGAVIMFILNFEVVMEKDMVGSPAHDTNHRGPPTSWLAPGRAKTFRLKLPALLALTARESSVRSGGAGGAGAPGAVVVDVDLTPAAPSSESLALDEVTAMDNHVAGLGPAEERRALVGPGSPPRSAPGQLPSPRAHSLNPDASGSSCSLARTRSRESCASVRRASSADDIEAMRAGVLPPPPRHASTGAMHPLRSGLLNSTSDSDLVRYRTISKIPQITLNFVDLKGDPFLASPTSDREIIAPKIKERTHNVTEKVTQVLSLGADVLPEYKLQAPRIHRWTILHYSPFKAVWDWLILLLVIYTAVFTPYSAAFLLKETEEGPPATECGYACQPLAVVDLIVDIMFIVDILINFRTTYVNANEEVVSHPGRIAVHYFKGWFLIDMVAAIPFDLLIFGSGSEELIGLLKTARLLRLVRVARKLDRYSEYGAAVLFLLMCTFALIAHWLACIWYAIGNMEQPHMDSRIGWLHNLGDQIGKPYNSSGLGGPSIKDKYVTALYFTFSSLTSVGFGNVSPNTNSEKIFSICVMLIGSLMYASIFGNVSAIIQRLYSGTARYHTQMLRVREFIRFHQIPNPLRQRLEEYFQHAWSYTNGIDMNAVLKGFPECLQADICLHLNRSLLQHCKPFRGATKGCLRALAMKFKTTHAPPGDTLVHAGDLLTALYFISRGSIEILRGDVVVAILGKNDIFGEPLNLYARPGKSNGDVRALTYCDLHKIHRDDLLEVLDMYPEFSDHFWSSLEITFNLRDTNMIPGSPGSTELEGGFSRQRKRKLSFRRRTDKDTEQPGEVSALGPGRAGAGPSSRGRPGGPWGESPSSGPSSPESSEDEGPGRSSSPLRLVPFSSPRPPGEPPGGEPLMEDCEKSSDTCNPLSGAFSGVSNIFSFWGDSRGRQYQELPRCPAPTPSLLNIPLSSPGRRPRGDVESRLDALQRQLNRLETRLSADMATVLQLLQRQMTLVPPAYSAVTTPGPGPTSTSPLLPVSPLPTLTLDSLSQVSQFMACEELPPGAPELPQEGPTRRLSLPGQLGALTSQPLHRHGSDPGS
T3 sequence (P33261 whole entry): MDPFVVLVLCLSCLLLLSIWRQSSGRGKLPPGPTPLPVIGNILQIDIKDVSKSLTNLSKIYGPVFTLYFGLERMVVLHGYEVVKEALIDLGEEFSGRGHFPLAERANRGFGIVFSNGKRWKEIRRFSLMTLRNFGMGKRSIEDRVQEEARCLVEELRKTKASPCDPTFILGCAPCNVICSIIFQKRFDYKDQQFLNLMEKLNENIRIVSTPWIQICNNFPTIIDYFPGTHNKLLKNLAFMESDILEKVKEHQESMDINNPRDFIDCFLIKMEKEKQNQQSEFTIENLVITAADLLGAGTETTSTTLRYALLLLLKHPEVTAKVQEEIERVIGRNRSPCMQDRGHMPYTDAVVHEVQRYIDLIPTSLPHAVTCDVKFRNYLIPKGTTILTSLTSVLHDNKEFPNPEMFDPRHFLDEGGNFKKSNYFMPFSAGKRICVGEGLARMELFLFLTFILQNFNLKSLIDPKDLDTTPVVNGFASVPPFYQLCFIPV

Take `CNCC/C=C1\c2ccccc2C[C@H](O)c2ccccc21` (stereo in doubt) [(+)-E-10-OH-NT]: the Ki (usually a dissociation constant, usually derived from enzyme kinetics or from competition with a known ligand) in series [1] is 280 nM; in series [2] (setting [5]), 700 nM. Besides, the inhibition (usually the drop in the measured response relative to a control, in per cent) at 10 µM on CYP2C19 worked out at 20%; on hERG, 8.8%; in series [3], 19%. Besides, in series [3], the IC50 (usually the point on the concentration scale where inhibition reaches its midpoint) was more than 1000 nM. Further, in series [4] (30 mg/kg IP), the “antihyperalgesia (% AH)” value was “not antihyperalgesic”. For the same compound, the “antihyperalgesic activity, time course” value in series [4] (30 mg/kg IP, 1, 2, or 4 hours after administration) is “not antihyperalgesic at any time point tested”. Besides, the “antihyperalgesic activity (% AH)” value in series [4] worked out at 40±13 % AH.

Regarding `CNCC/C=C1\c2ccccc2C[C@@H](O)c2ccccc21` (stereo in doubt) [(−)-E-10-OH-NT], the values for the Ki in series [1] and in series [2] (setting [5]) were 150 nM and 3000 nM, respectively. In addition, the results for the inhibition at 10 µM (at CYP2C19; at hERG; in series [3]) were 24%, 6% and 16%, respectively. The IC50 in series [3] was more than 1000 nM. For the same compound, the “antihyperalgesia (% AH)” value in series [4] (30 mg/kg IP) is 55±7 % AH. Besides, the “antihyperalgesic activity (Example 5)” value in series [4] (30 mg/kg, i.p.) is recorded as “robust antihyperalgesic activity”. The “antihyperalgesic activity (% AH)” value in series [4] amounted to 270±53 % AH. The “antihyperalgesic activity, orally-administered” value in series [4] (oral administration) is recorded as “significant activity”. Besides, the “ED50 for reversal of mechanical hyperalgesia” value in series [4] is 36 mg/kg IP.

Consider `CN(C)CCC=C1c2ccccc2CCc2ccccc21` [AT, amitriptyline, reference compound], for which the results for the Ki in series [1] and in series [2] (setting [5]) were 3.5 nM and 21 nM, respectively. The IC50 on CYP2C19 was 3500 nM; in series [3] it was 2400 nM. Further, in series [4], the “antihyperalgesic activity (% AH)” value came out at 259±39 % AH. Further, in series [4], the “ED50 for reversal of mechanical hyperalgesia” value was found to be 38 mg/kg IP.

In the case of `CNCCC=C1c2ccccc2CCc2ccccc21` [NT, nortriptyline, reference compound], the inhibition constant (Ki) in series [1] was determined as 15 nM; in series [2], 60 nM. Also, the IC50 stood at 1500 nM at CYP2C19 and 1700 nM in series [3]. For the same compound, the inhibition at 10 µM at hERG was 55.1%.

For the origin of these results see patent US20120178815A1, “Compositions of (-)-E-10-OH-NT and Methods for Their Synthesis and Use” (Adolor Corporation, priority 2007, published 2012).
